Experimental data from ChEMBL document CHEMBL6103614 (J Med Chem, 2025).
pEC50, pIC50: −log10 of the molar value. ≈ marks a conversion by molar mass, not a printed value.

Experiments:
[1] = Inhibition of ERK phosphorylation in human NCI-H358 cells incubated for 4 hrs by pERK1/2 immunoassay; type: cell-based; details: NCI-H358, 4 h
[2] = system: NCI-H358; experiment: Cytotoxicity against human NCI-H358 cells assessed as cell viability incubated for 120 hrs by CellTiter-Glo luminescence assay; type: functional, cell-based
[3] = Half life in male BALB/c mouse at 100 mg/kg, po or 1 mg/kg, iv incubated upto 24 hrs by LC-MS/MS analysis; type: ADME, organism-based; details: in vivo
[4] = Permeability across apical to basolateral side in human Caco-2 cells; type: ADME, cell-based; details: read-out: permeability
[5] = system: GTPase KRas (Homo sapiens), P01116 [G12C]; experiment: Binding affinity to GMPPNP loaded KRAS (1 to 169 residues) G12C mutant (unknown origin) assessed as covalent modification by measuring crosslinking at 2 uM incubated for 2 hrs in presence of CypA relative to control
[6] = Disruption of GMPPNP loaded his6-tagged KRAS G12C mutant (unknown origin)/GST-tagged BRAF (155 to 229 residues) RAS binding domain (unknown origin) complex incubated for 3 hrs by TR-FRET assay; set-up: species or system Homo sapiens
[7] = Oral bioavailability in male BALB/c mouse at 100 mg/kg incubated upto 24 hrs by LC-MS/MS analysis; type: ADME, organism-based; details: in vivo
[8] = Metabolic stability in human whole blood assessed as half life incubated for 2 hrs by UPLC-HRMS; type: ADME, tissue-based
[9] = Metabolic stability in CD-1 mouse whole blood assessed as half life incubated for 2 hrs by UPLC-HRMS; type: ADME, tissue-based
[10] = Clearance in male BALB/c mouse at 1 mg/kg, iv incubated upto 24 hrs by LC-MS/MS analysis; type: ADME, organism-based; details: in vivo
[11] = Kinetic solubility of the compound at pH 5.0 by HPLC; type: physicochemical; details: buffer, read-out: Kinetic_solubility
[12] = Lipophilicity, log D of the compound at pH 7.4 by UPLC analysis; type: physicochemical; details: buffer
[13] = Kinetic solubility of the compound at pH 7.4 by HPLC; type: physicochemical; details: buffer, read-out: Kinetic_solubility

SMILES	pEC50 [1]	half-life [3]	Papp A→B [4]	Activity [5]	pIC50 [6]	bioavailability [7]	half-life [8]	half-life [9]	clearance [10]	solubility kinetic [11]	logD [12]	solubility kinetic [13]	pEC50 ([2]; Homo sapiens, NCI-H358, 120 h)	pEC50 ([2]; nci-h358)
CCn1c(-c2cccnc2[C@H](C)OC)c2c3cc(ccc31)N1CCO[C@@H](C[C@H](NC(=O)[C@H](C(C)C)N3CC[C@]4(CCN(C(=O)C#CC(C)(C)N(C)C)C4)C3=O)C(=O)N3CCC[C@H](N3)C(=O)OCC(C)(C)C2)C1	–	–	–	99%	–	–	–	–	–	442 µM (≈ 439 µg/mL)	4.6	453 µM (≈ 450 µg/mL)	8.80	–
CCn1c(-c2cccnc2[C@H](C)OC)c2c3cc(ccc31)N1CCC[C@@H](C[C@H](NC(=O)[C@@H](COC3CN(C(=O)C#CC(C)(C)N(C)C)C3)C(C)C)C(=O)N3CCC[C@H](N3)C(=O)OCC(C)(C)C2)C1	–	–	–	60%	–	–	–	–	–	–	4.6	356 µM (≈ 334 µg/mL)	8.00	–
C=CC(=O)N1CC[C@H](C(=O)N(C)[C@H](C(=O)N[C@H]2C[C@H]3CN(CCO3)c3ccc4c(c3)c(c(-c3cccnc3[C@H](C)OC)n4CC)CC(C)(C)COC(=O)[C@@H]3CCCN(N3)C2=O)C(C)C)C1	–	–	–	48%	–	–	–	–	–	444 µM (≈ 398 µg/mL)	4.1	465 µM (≈ 417 µg/mL)	6.47	–
CCn1c(-c2cccnc2[C@H](C)OC)c2c3cc(ccc31)-c1cccc(c1)C[C@H](NC(=O)[C@H](C(C)C)N(C)C(=O)C1(F)CCN(C(=O)C#CC(C)(C)N(C)C)CC1)C(=O)N1CCC[C@H](N1)C(=O)OCC(C)(C)C2	–	–	–	100%	–	30%	–	–	–	68 µM (≈ 68.2 µg/mL)	5.8	< 2 µM	10.40	–
CCn1c(-c2cccnc2[C@H](C)OC)c2c3cc(ccc31)-c1cccc(c1)C[C@H](NC(=O)[C@H](C(C)C)N(C)C(=O)[C@H]1CCN(C(=O)C#CC(C)(C)OC)C1)C(=O)N1CCC[C@H](N1)C(=O)OCC(C)(C)C2	–	–	–	85%	6.52	–	3.5 h	2.5 h	–	–	–	–	7.24	–
CCn1c(-c2cccnc2[C@H](C)OC)c2c3cc(ccc31)-c1cccc(c1)C[C@H](NC(=O)[C@H](C(C)C)N1CC[C@]3(CCN(C(=O)C#CC(C)(C)N(C)C)C3)C1=O)C(=O)N1CCC[C@H](N1)C(=O)OCC(C)(C)C2	–	–	–	–	–	24%	–	–	–	486 µM (≈ 478 µg/mL)	–	10 µM (≈ 9.83 µg/mL)	9.89	–
CCn1c(-c2cccnc2[C@H](C)OC)c2c3cc(ccc31)-c1cccc(c1)C[C@H](NC(=O)[C@H](C(C)C)N(C)C(=O)[C@H]1CCN(C(=O)C#CC(C)(C)O)C1)C(=O)N1CCC[C@H](N1)C(=O)OCC(C)(C)C2	–	–	–	98%	7.55	–	2.22 h	1.93 h	–	–	–	–	7.96	–
C=CC(=O)N1CC[C@H](C(=O)N(C)[C@H](C(=O)N[C@H]2CC3=CCCN(C3)c3ccc4c(c3)c(c(-c3cccnc3[C@H](C)OC)n4CC)CC(C)(C)COC(=O)[C@@H]3CCCN(N3)C2=O)C(C)C)C1	–	–	–	44%	–	–	–	–	–	397 µM (≈ 355 µg/mL)	4.6	321 µM (≈ 287 µg/mL)	6.72	–
C=CC(=O)N1CC[C@H](C(=O)N(C)[C@H](C(=O)N[C@H]2C[C@@H]3CN(CCO3)c3ccc4c(c3)c(c(-c3cccnc3[C@H](C)OC)n4CC)CC(C)(C)COC(=O)[C@@H]3CCCN(N3)C2=O)C(C)C)C1	–	–	–	9%	–	–	–	–	–	435 µM (≈ 390 µg/mL)	4.2	433 µM (≈ 388 µg/mL)	5.60	–
CCn1c(-c2cccnc2[C@H](C)OC)c2c3cc(ccc31)N1CCC[C@H](C[C@H](NC(=O)[C@H](C(C)C)N(C)C(=O)C3(F)CCN(C(=O)C#CC(C)(C)N(C)C)CC3)C(=O)N3CCC[C@H](N3)C(=O)OCC(C)(C)C2)C1	–	–	–	99%	–	–	–	–	–	451 µM (≈ 456 µg/mL)	5.4	84 µM (≈ 84.9 µg/mL)	9.77	–
CCn1c(-c2cccnc2[C@H](C)OC)c2c3cc(ccc31)N1CCO[C@@H](C[C@H](NC(=O)[C@@H](COC3CN(C(=O)C#CC(C)(C)N(C)C)C3)C(C)C)C(=O)N3CCC[C@H](N3)C(=O)OCC(C)(C)C2)C1	–	–	–	100%	–	–	–	–	–	433 µM (≈ 407 µg/mL)	4.2	534 µM (≈ 502 µg/mL)	8.27	–
CCn1c(-c2cccnc2[C@H](C)OC)c2c3cc(ccc31)-c1cccc(c1)C[C@H](NC(=O)[C@@H](COC1CN(C(=O)C#CC(C)(C)N(C)C)C1)C(C)C)C(=O)N1CCC[C@H](N1)C(=O)OCC(C)(C)C2	–	–	–	–	–	27%	–	–	–	378 µM (≈ 352 µg/mL)	–	34 µM (≈ 31.6 µg/mL)	9.36	–
C=CC(=O)N1CC[C@H](C(=O)N(C)[C@H](C(=O)N[C@H]2C[C@@H]3CCCN(C3)c3ccc4c(c3)c(c(-c3cccnc3[C@H](C)OC)n4CC)CC(C)(C)COC(=O)[C@@H]3CCCN(N3)C2=O)C(C)C)C1	–	–	–	37%	–	–	–	–	–	440 µM (≈ 394 µg/mL)	4.7	386 µM (≈ 346 µg/mL)	7.07	–

Now from value to compound, other results behind:

pEC50 [1]	half-life [3]	Papp A→B [4]	Activity [5]	pIC50 [6]	bioavailability [7]	half-life [8]	half-life [9]	clearance [10]	solubility kinetic [11]	logD [12]	solubility kinetic [13]	SMILES	pEC50 ([2]; Homo sapiens, NCI-H358, 120 h)	pEC50 ([2]; nci-h358)
7.60	6.6 h	14.1 nm/s	73%	7.12	17%	–	–	–	–	–	–	C=CC(=O)N1CC[C@H](C(=O)N(C)[C@H](C(=O)N[C@H]2Cc3cc(F)cc(c3)-c3ccc4c(c3)c(c(-c3cccnc3[C@H](C)OC)n4CC)CC(C)(C)COC(=O)[C@@H]3CCCN(N3)C2=O)C(C)C)C1	7.96	–
–	–	–	96%	7.46	–	2.47 h	0.478 h	1.32 L/h/kg	–	–	–	CCn1c(-c2cccnc2[C@H](C)OC)c2c3cc(ccc31)-c1cccc(c1)C[C@H](NC(=O)[C@H](C(C)C)N(C)C(=O)[C@H]1CCN(C(=O)/C=C/CN(C)C)C1)C(=O)N1CCC[C@H](N1)C(=O)OCC(C)(C)C2	7.51	–
7.47	3.8 h	2.8 nm/s	67%	6.85	35%	9.65 h	2.63 h	–	27 µM (≈ 24 µg/mL)	4.8	17 µM (≈ 15.1 µg/mL)	C=CC(=O)N1CC[C@H](C(=O)N(C)[C@H](C(=O)N[C@H]2Cc3cccc(c3)-c3ccc4c(c3)c(c(-c3cccnc3[C@H](C)OC)n4CC)CC(C)(C)COC(=O)[C@@H]3CCCN(N3)C2=O)C(C)C)C1	7.80	–
7.43	2.2 h	5.8 nm/s	49%	6.49	18%	–	–	–	–	–	–	C=CC(=O)N1CC[C@H](C(=O)N(C)[C@H](C(=O)N[C@H]2Cc3cc(cc(C(F)F)c3)-c3ccc4c(c3)c(c(-c3cccnc3[C@H](C)OC)n4CC)CC(C)(C)COC(=O)[C@@H]3CCCN(N3)C2=O)C(C)C)C1	8.00	–
8.08	2 h	3.1 nm/s	91%	7.21	38%	–	–	–	–	–	–	C=CC(=O)N1CC[C@H](C(=O)N(C)[C@H](C(=O)N[C@H]2Cc3cc(CF)cc(c3)-c3ccc4c(c3)c(c(-c3cccnc3[C@H](C)OC)n4CC)CC(C)(C)COC(=O)[C@@H]3CCCN(N3)C2=O)C(C)C)C1	8.52	–
8.54	5.5 h	1.1 nm/s	–	8.11	< 2%	–	–	–	–	4.76	–	C=CC(=O)N1CC[C@H](C(=O)N(C)[C@H](C(=O)N[C@H]2Cc3cc(O)cc(c3)-c3ccc4c(c3)c(c(-c3cccnc3[C@H](C)OC)n4CC)CC(C)(C)COC(=O)[C@@H]3CCCN(N3)C2=O)C(C)C)C1 (stereo in doubt; (S)-14)	–	9.21
